# Reference: US11147801B2, “Methods of use for trisubstituted benzotriazole derivatives as dihydroorotate oxygenase inhibitors” (Aurigene Discovery Technologies Limited, priority 2017, dated 2021)
# Tests used:
# AML_5 tumor = assay: Patient-derived AML xenograft model AML_5; format: in vivo, CB17 SCID mice; conditions: AML 5 patient-derived xenograft, 100 mg/kg BID PO
# Experimental: (§1) A screen was next performed using a small number of mice/group to assess efficacy of Compound 1 in AML and DLBCL patient-derived xenograft models. Tumor-bearing mice (n=3/group) were treated with vehicle or Compound 1 at 100 mg/kg BID PO.
# DLBCL_1 tumor = assay: Patient-derived DLBCL xenograft model DLBCL_1 (triple hit); format: in vivo, CB17 SCID mice; conditions: 100 mg/kg BID PO
# Experimental: as §1
# AML_2 tumor = assay: Patient-derived AML xenograft model AML_2; format: in vivo, CB17 SCID mice; conditions: 100 mg/kg BID PO
# Experimental: as §1
# MOLM-13 tumors = assay: MOLM-13 acute myeloid leukemia xenograft model; format: in vivo
# Experimental: In vivo efficacy studies with Compound 1 were performed to assess the in vitro to in vivo translation of effects on blockade of DHODH and tumor cell growth inhibition. 1×10^6 MOLM-13 cells were implanted subcutaneously into CB17 SCID mice. Mice (n=15/group) were treated with vehicle or Compound 1 at 100 mg/kg BID PO once tumors reached an average of ˜150 mm^3. At end of the study, tissues were collected at the indicated timepoints post-last dose for pharmacokinetic (PK) and pathway biomarker analyses.
# OCILY-19 tumors = assay: OCILY-19 diffuse large B-cell lymphoma xenograft model; format: in vivo, CB17 SCID mice
# Experimental: 7×10^6 OCILY-19 cells were implanted subcutaneously into CB17 SCID mice. Mice (n=15-18/group) were treated with vehicle or Compound 1 at the indicated dose/frequency once tumors reached an average of ˜150 mm^3. Tissues were collected at the indicated timepoints post-last dose for PK and biomarker analyses.
# REC-1 = assay: Heme line growth assay (Cell-Titer Glo), 4-day and extended 7-day; format: cell-based, human; design: key to Sensitivity 7-day: *: insensitive; **: intermediate; ***: sensitive
# Experimental: (§2) A follow-up screen was performed on an expanded panel of cell lines of heme lineage in a 4-day growth assay. Growth was assessed by Cell-Titer Glo measurements on day 0 and day 4.
# (§3) Compound 1, of which diffuse large B cell lymphoma (DLBCL) lines were particularly sensitive (8/11 or 73%). A subset of the heme lines that were of intermediate sensitivity (defined as >50% and <75% growth rate inhibition) or insensitive (defined as <50% growth rate inhibition) to compound 1 in this follow-up screen were subjected to extended growth assays to evaluate if increased treatment time modulated their sensitivity profile. Specifically, these heme lines were pretreated with Compound 1 for three days at the indicated concentrations and then re-plated for a standard 4-day growth assay in fresh media/drug.
# AML-193 = assay: as above; format: cell-based, human; design: key to Sensitivity 7-day: *: insensitive; **: intermediate; ***: sensitive
# Experimental: as §2, §3
# BDCM = assay: as above; format: cell-based, human; design: key to Sensitivity 7-day: *: insensitive; **: intermediate; ***: sensitive
# Experimental: as §2, §3
# THP-1 = assay: as above; format: cell-based, human; design: key to Sensitivity 7-day: *: insensitive; **: intermediate; ***: sensitive
# Experimental: as §2, §3
# MOLP-2 = assay: as above; format: cell-based, human; design: key to Sensitivity 7-day: *: insensitive; **: intermediate; ***: sensitive
# Experimental: as §2, §3
# KG-1 = assay: as above; format: cell-based, human; design: key to Sensitivity 7-day: *: insensitive; **: intermediate; ***: sensitive
# Experimental: as §2, §3
# U266B1 = assay: as above; format: cell-based, human; design: key to Sensitivity 7-day: *: insensitive; **: intermediate; ***: sensitive
# Experimental: as §2, §3
# SUDHL4 = assay: as above; format: cell-based, human; design: key to Sensitivity 7-day: *: insensitive; **: intermediate; ***: sensitive
# Experimental: as §2, §3
# HuNS1 = assay: as above; format: cell-based, human; design: key to Sensitivity 7-day: *: insensitive; **: intermediate; ***: sensitive
# Experimental: as §2, §3
# KMS12BM = assay: as above; format: cell-based, human; design: key to Sensitivity 7-day: *: insensitive; **: intermediate; ***: sensitive
# Experimental: as §2, §3
# HEL = assay: as above; format: cell-based, human; design: key to Sensitivity 7-day: *: insensitive; **: intermediate; ***: sensitive
# Experimental: as §2, §3
# TF1 = assay: as above; format: cell-based, human; design: key to Sensitivity 7-day: *: insensitive; **: intermediate; ***: sensitive
# Experimental: as §2, §3
# LP1 = assay: as above; format: cell-based, human; design: key to Sensitivity 7-day: *: insensitive; **: intermediate; ***: sensitive
# Experimental: as §2, §3
# F36P = assay: as above; format: cell-based, human; design: key to Sensitivity 7-day: *: insensitive; **: intermediate; ***: sensitive
# Experimental: as §2, §3
# cancer lines = assay: Cell growth assays with uridine supplemented into the medium (uridine rescue); format: cell-based
# Experimental: To confirm that the effects of Compound 1 in impairing cell growth/viability were due to specific inhibition of DHODH, cell growth assays were performed with varying amounts of uridine supplemented into the medium.
# [1] = 3 days pretreatment then 4-day growth assay
# [2] = acute myeloid leukemia, 4-day growth assay
compound,measurement,setting,value
"Cc1ccccc1-c1ccc(-c2cc(C(=O)O)c3c(c2)nnn3C)cc1 [Compound 1, 1-methyl-5-(2′-methyl-[1,1′-biphenyl]-4-yl)-1H-benzo[d][1,2,3]triazole-7-carboxylic Acid]",TGI,AML_5 tumor,> 60%
same,TGI,DLBCL_1 tumor,> 60%
same,TGI,AML_2 tumor,> 60%
same,Tolerability,"MOLM-13 tumors; 100 mg/kg BID PO, CB17 SCID mice",well tolerated
same,Tumor growth inhibition (TGI),"MOLM-13 tumors; 100 mg/kg BID PO, MOLM-13 xenograft, 14 days",near complete tumor growth inhibition
same,Reduction of tumor uridine pools,"MOLM-13 tumors; 100 mg/kg BID, MOLM-13 tumors, depending on the timepoint",~60%
same,Tumor levels of dihydroorotate (DHO),"MOLM-13 tumors; 100 mg/kg BID, MOLM-13 tumors, over 12 hrs after last dose, baseline BQL<120 ng/g",dramatic increase
same,Pharmacokinetics profile in plasma and tumor,"MOLM-13 tumors; 100 mg/kg BID, after last dose",drop in drug concentrations by 12 hrs
same,Efficacy of dosing regimen,OCILY-19 tumors; 100 mg/kg BID compared to 10 and 30 mg/kg BID,superior efficacy
same,Tumor DHO,"OCILY-19 tumors; 100 mg/kg BID versus 10 and 30 mg/kg BID, OCILY-19 tumors",larger increase
same,Total tumor uridine pools,"OCILY-19 tumors; 100 mg/kg BID, OCILY-19 tumors",decrease
same,Efficacy of dosing regimen,OCILY-19 tumors; 200 mg/kg QD compared to 100 mg/kg BID,less efficacious
same,In vivo tumor growth,"OCILY-19 tumors; OCILY-19 DLBCL xenograft, CB17 SCID mice",strong block in in vivo tumor growth
same,Half-life in mice,OCILY-19 tumors; mice,short half-life
same,Sensitivity 7-day,"REC-1; REC-1, 3 days pretreatment then 4-day growth assay",***
same,Sensitivity 4-day,"REC-1; REC-1, mantle cell lymphoma, 4-day growth assay",* (insensitive)
same,Sensitivity 7-day,"AML-193; AML-193, 3 days pretreatment then 4-day growth assay",***
same,Sensitivity 4-day,"AML-193; AML-193, acute myeloid leukemia, 4-day growth assay",** (intermediate)
same,Sensitivity 7-day,BDCM; [1],***
same,Sensitivity 4-day,BDCM; [2],** (intermediate)
same,Sensitivity 7-day,"THP-1; THP-1, 3 days pretreatment then 4-day growth assay",***
same,Sensitivity 4-day,"THP-1; THP-1, acute myeloid leukemia, 4-day growth assay",** (intermediate)
same,Sensitivity 7-day,"MOLP-2; MOLP-2, 3 days pretreatment then 4-day growth assay",***
same,Sensitivity 4-day,"MOLP-2; MOLP-2, multiple myeloma, 4-day growth assay",** (intermediate)
same,Sensitivity 7-day,"KG-1; KG-1, 3 days pretreatment then 4-day growth assay",***
same,Sensitivity 4-day,"KG-1; KG-1, acute myeloid leukemia, 4-day growth assay",* (insensitive)
same,Sensitivity 7-day,"U266B1; U266B1, 3 days pretreatment then 4-day growth assay",***
same,Sensitivity 4-day,"U266B1; U266B1, multiple myeloma, 4-day growth assay",* (insensitive)
same,Sensitivity 7-day,"SUDHL4; SUDHL4, 3 days pretreatment then 4-day growth assay",***
same,Sensitivity 4-day,"SUDHL4; SUDHL4, diffuse large B cell lymphoma, 4-day growth assay",** (intermediate)
same,Sensitivity 7-day,"HuNS1; HuNS1, 3 days pretreatment then 4-day growth assay",***
same,Sensitivity 4-day,"HuNS1; HuNS1, multiple myeloma, 4-day growth assay",* (insensitive)
same,Sensitivity 7-day,KMS12BM; [1],***
same,Sensitivity 4-day,"KMS12BM; multiple myeloma, 4-day growth assay",** (intermediate)
same,Sensitivity 7-day,HEL; [1],***
same,Sensitivity 4-day,HEL; [2],** (intermediate)
same,Sensitivity 7-day,"TF1; TF1, 3 days pretreatment then 4-day growth assay",***
same,Sensitivity 4-day,"TF1; TF1, acute myeloid leukemia, 4-day growth assay",* (insensitive)
same,Sensitivity 7-day,"LP1; LP1, 3 days pretreatment then 4-day growth assay",***
same,Sensitivity 4-day,"LP1; LP1, multiple myeloma, 4-day growth assay",* (insensitive)
same,Sensitivity 7-day,F36P; [1],***
same,Sensitivity 4-day,F36P; [2],** (intermediate)
same,Rescue of growth effects by exogenous uridine,"cancer lines; supraphysiologic uridine (25 μM and 100 μM), up to 10 μM of compound",completely rescued
same,Rescue of growth effects by exogenous uridine,cancer lines; uridine close to physiologic (5 μM),partially rescued
